Experimental data taken from patent publication US7923462B2, “Catechol derivative, pharmaceutical composition containing the same, use of the catechol derivative, and use of the pharmaceutical composition” (Kissei Pharmaceutical Co., Ltd., priority 2007, dated 2011).

Tests used:
[1] = test system: rat cryopreserved hepatocytes; assay: Rat hepatocyte toxicities (cell viability, ATP activity); assay type: cell-based; conditions: concentration that shows 50% of the number of viable cells of control, 4 hours at 37° C.
recombinant human COMT = biological target: T1, recombinant human COMT (Homo sapiens, UniProt P21964); assay: Human COMT inhibitory potency; assay type: biochemical; conditions: catechol substrate, [3H]-S-adenosyl-L-methionine, 37° C. 30 minutes
T1 construct: GST (N, cleaved yes); made in house; host or cells: E. coli BL21 (DE3) CODON PLUS RP
T1 sequence (P21964 with tags, fused parts or gaps): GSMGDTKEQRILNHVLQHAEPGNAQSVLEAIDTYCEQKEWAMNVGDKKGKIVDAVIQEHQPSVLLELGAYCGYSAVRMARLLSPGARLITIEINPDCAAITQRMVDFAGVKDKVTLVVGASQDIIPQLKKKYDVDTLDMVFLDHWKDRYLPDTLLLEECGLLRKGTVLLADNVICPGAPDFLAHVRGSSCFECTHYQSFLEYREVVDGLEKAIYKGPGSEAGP

[2] = Evaluation of plasma L-dopa concentration; assay type: in vivo, Sprague-Dawley rats; conditions: percentage of control group, test compound 3 mg/kg oral, blood 2 hours later; for Plasma L-dopa (%) 4 hour: L-dopa 5 mg/kg and carbidopa 30 mg/kg oral 4 hours after; for Plasma L-dopa (%) 6 hour: L-dopa 5 mg/kg and carbidopa 30 mg/kg oral 6 hours after
[3] = test system: unilateral 6-hydroxydopamine-lesioned hemi-Parkinsonian rats; assay: Potentiation of the efficacy of L-dopa, turning behavior; assay type: in vivo, Sprague-Dawley rats; conditions: 10 mg/kg oral with 5 mg/kg L-dopa and 30 mg/kg carbidopa; for Total counts: contralateral rotation counts; for Duration: duration of contralateral turning response

SMILES	IC50 (recombinant human COMT) [µM]	EC50 [1] [µM]	Plasma L-dopa (%) 4 hour [2] [%]	Plasma L-dopa (%) 6 hour [2] [%]	Total counts [3]	Duration [3] [min]
Cc1noc(-c2cc(O)c(O)c([N+](=O)[O-])c2)n1 [Comparative example 1, 5-(3-methyl-[1,2,4]oxadiazol-5-yl)-3-nitro-benzene-1,2-diol, reference compound]	0.0132	172	143.3 ± 13.3	106.9 ± 18.2	–	–
CC(=O)c1c(-c2noc(C)n2)cc(O)c(O)c1[N+](=O)[O-] [Compound 1-2]	–	645	–	–	2103.0	312.5
COCc1nc(-c2cc(O)c(O)c([N+](=O)[O-])c2C(=O)OC)no1 [Compound 1-9]	0.0077	> 1000	–	–	–	–
CCOC(=O)c1c(-c2noc(C)n2)cc(O)c(O)c1[N+](=O)[O-] [Compound 1-14]	–	–	–	–	1678.4	275.0
Cc1nc(-c2cc(O)c(O)c([N+](=O)[O-])c2C(=O)C2CCCCC2)no1 [Compound 1-20]	0.0087	–	–	–	–	–
CCOCCc1nc(-c2cc(O)c(O)c([N+](=O)[O-])c2C(C)=O)no1 [Compound 1-37]	0.0047	–	–	–	–	–
Cc1nc(-c2cc(O)c(O)c([N+](=O)[O-])c2C(=O)C(=O)NC2CCCCC2)no1 [Compound 1-40]	0.0088	–	–	–	–	–
Cc1nc(-c2cc(O)c(O)c([N+](=O)[O-])c2C(=O)C(=O)N(C)C2CCCCC2)no1 [Compound 1-41]	0.0047	–	–	–	–	–
Cc1ccc(C(=O)c2cc(O)c(O)c([N+](=O)[O-])c2)cc1 [Tolcapone, 3,4-dihydroxy-4′-methyl-5-nitro-benzophenone, reference compound]	–	34.3	–	–	–	–

The next lines start with results.

IC50 (recombinant human COMT) [µM]	SMILES	EC50 [1] [µM]	Plasma L-dopa (%) 4 hour [2] [%]	Plasma L-dopa (%) 6 hour [2] [%]	Total counts [3]	Duration [3] [min]
0.0094	Cc1nc(-c2cc(O)c(O)c([N+](=O)[O-])c2C(=O)c2ccccc2)no1 [Compound 1-1, [3,4-Dihydroxy-6-(5-methyl-[1,2,4]oxadiazol-3-yl)-2-nitro-phenyl]phenylmethanone]	683	182.9 ± 5.0	189.2 ± 32.8	2060.8	293.8
0.0081	Cc1nc(-c2cc(O)c(O)c([N+](=O)[O-])c2C(=O)C(C)C)no1 [Compound 1-3, 1-[3,4-dihydroxy-6-(5-methyl-[1,2,4]-oxadiazol-3-yl)-2-nitrophenyl]-2-methylpropane-1-one]	698	–	–	–	–
0.0093	COC(=O)c1c(-c2noc(C)n2)cc(O)c(O)c1[N+](=O)[O-] [Compound 1-5, methyl 3,4-dihydroxy-6-(5-methyl-[1,2,4]-oxadiazol-3-yl)-2-nitrobenzoate]	> 1000	–	–	2051.9	321.3
0.0083	Cc1nc(-c2cc(O)c(O)c([N+](=O)[O-])c2C(=O)c2ccccc2F)no1 [Compound 1-22]	523	–	–	–	–
0.0076	Cc1nc(-c2cc(O)c(O)c([N+](=O)[O-])c2C(=O)c2ccno2)no1 [Compound 1-24]	> 1000	–	–	–	–
